“Also recorded” adds a separate entry of the source. Where two headings read alike, the source gives them in different places.
Tests used:
SHP2 (residues 224-528) = biological target: T1, SHP2 (residues 224-528) (Homo sapiens, UniProt Q06124); test: Kinetic characterization of SHP2 inactivation (pNPP cleavage progress curves, kobs, kinact/KI); assay type: biochemical; settings: for kinact/KI / KI (inactivation) / kinact: substrate pNPP 3 mM, 100 nM SHP2, pH 7.0, 25° C; for fold decrease in efficacy: comparator not given
T1 construct: 4× solution of SHP2 (residues 224-528)
T1 sequence (Q06124 224-528): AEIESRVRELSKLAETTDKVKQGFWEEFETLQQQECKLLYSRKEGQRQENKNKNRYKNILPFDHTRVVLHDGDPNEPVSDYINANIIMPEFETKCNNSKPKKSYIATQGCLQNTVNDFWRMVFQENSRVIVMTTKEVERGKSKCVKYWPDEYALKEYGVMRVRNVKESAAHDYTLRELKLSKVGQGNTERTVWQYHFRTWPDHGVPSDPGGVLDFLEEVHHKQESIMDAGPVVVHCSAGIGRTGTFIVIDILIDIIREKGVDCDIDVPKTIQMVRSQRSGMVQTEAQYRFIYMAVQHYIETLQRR
Text: Covalent inhibitors work by forming a covalent bond with a reactive functional group in the target enzyme. Consequently, the kinetics for enzyme inactivation by a covalent inhibitor is not an equilibrium process as with reversible inhibition. The potency of a reversible inhibitor can be measured by its IC50 value. Unlike reversible inhibitors, where inhibition is only concentration-dependent, covalent inhibitors show both time- and concentration-dependent target inhibition (a covalent bond formation is a time-dependent event). If sufficient time is available, covalent inhibitors can completely neutralize the target, rather than go to equilibrium. As a result, the potency and selectivity of a covalent inhibitor cannot be determined by IC50 values; instead, the rate of inactivation of the target (kinact) and the inhibition constant (KI) were determined. The bimolecular rate constant (kinact/KI), was chosen to rank the potency of covalent inhibitors (Ruddraraju et al., 2017, Molecular Biosystems 13(7), 1257-1279).
PTPs catalyze the dephosphorylation of tyrosine-phosphorylated protein substrates through a conserved mechanism that relies on a catalytic cysteine residue (Zhang, Z.-Y et al., 2003, Prog. Nucleic Acid Research Molecular Biology, 73, 171-220). This provides a mechanistic rationale for the assessment of electrophilic Michael acceptors, such as those synthesized in the present disclosure as potential covalent inhibitors of the SHP2. The enzymatic cleavage of para-nitrophenyl phosphate by SHP2 was measured over time in the presence of 100 μM inhibitor or DMSO, to determine the observed first-order rate constant (kobs). Based on kobs values, compounds were further evaluated in a dose-dependent manner to determine the second-order rate constant (kinact/KI) indicating the overall efficacy of the compounds, which was used to assess the structure-activity relationship (SAR) for the analogs of interest and design additional analogs (see Table 1). […] It has been known that modifications to the electronegativity of substituents proximal to electrophilic centers alter the reactivity of the electrophile.
The efficacy of covalent inhibitors can be broken down into the initial reversible binding of the compounds (KI), and the rate of covalent bond formation and enzyme inactivation (kinact). These two constants can be used individually, or as a ratio to determine the overall efficacy of the inhibitor's efficacy. To investigate the contribution to reversible binding compound (34) was evaluated, which lacks the carbonyl of the Michael acceptor to prevent the formation of a covalent adduct.
Inhibitors were evaluated for their ability to inhibit the reaction catalyzed by SHP2 using para-nitrophenyl phosphate (pNPP) as a substrate at pH 7 and 25° C. A 2× solution of inhibitor was diluted into DMG buffer (50 mM 3,3-dimethylglutarate pH 7.0, 1 mM EDTA, ionic strength adjusted to 150 mM using NaCl) was added to a clear flat-bottom 96-well plate (Corning Costar Assay Plate #9017), and serially diluted 1.5-fold, resulting in 100 μL volumes of varying inhibitor concentrations. To this was added a 4× solution of pNPP (12 mM) in DMG buffer. The reaction was initialized by the addition of a 4× solution of SHP2 (residues 224-528), resulting in a final solution of: inhibitor (100-0 μM), pNPP (3 mM), and SHP2 (100 nM). The plate was then monitored for a change in absorbance ab […] using a CLARIOstar^Plus plate reader (BMG Labetch) over the course of an hour. The resulting progress curves for each inhibitor were imported into Graphpad Prism 9 (GraphPad Software, San Diego, CA (USA)), and a baseline correction analysis was completed for fitting purposes. Each curve was fit to the equation Y=V0×(1−e^−kobs*t)/kobs.^[17.22] The kobs values were then plotted against inhibitor concentrations. If the resulting graph was linear, the kinact/KI value was determined by the slope of that line and the 95% confidence interval (95% CI). […]

SHP2 = biological target: T2, SHP2 (Homo sapiens, UniProt Q06124); test: Covalent adduct formation on SHP2 by intact protein LC-MS; assay type: binding; settings: 10 μM SHP2, 60 minutes; for % SHP2 Reacted (overall adduct formation): PVSN at 20 μM, compound 37 at 10 μM; for Found Ligand Adduct (mass shift): intact protein LC-MS
T2 construct: 4× solution of SHP2 (residues 224-528)
T2 sequence (Q06124 224-528): T1 sequence (Q06124 224-528)
Protocol: To validate covalent modification of SHP2 by the active compounds, adduct formation on SHP2 was measured by intact protein liquid chromatography-mass spectrometry (LC-MS). With intact protein LC-MS, multiply charged states of the protein species can be deconvoluted to achieve the total mass(es). Compounds were incubated with 10 μM SHP2 for 60 minutes before being quenched with acetonitrile for LC-MS analysis by electrospray ionization (ESI) in positive mode. […] (33), and (42) (FIGS. 3A and 3B).
To unfold protein and quench protein-ligand reactivity, 10 μL of treated or untreated 10 μM SHP2 was diluted in 40 μL of 80% (v/v) formic acid initially, followed by 150 μL of LC-MS buffer (50/50 water/acetonitrile with 0.1% formic acid). 20-25 pmol per sample was analyzed by LC/MS (Agilent 1260 Infinity II with a ZORBAX Rapid Resolution High Definition 300 Å Stable Bond C3, 2.1×100 mm, 1.8 μm column) attached to an Agilent 6129 quadrupole mass spectrometer in positive ion mode. The column was held at 45° C. Mobile solution A was 0.1% formic acid in water, and mobile phase B was 0.1% formic acid in acetonitrile. The gradient used was hold at 10% B for 5 min, increase linearly to 80% B for 15 min, and then hold at 80% B for 5 min. The mass data were collected at a range of 600-1500 m/z. Raw data were processed using MestReNova. For all samples, the deconvoluted mass was calculated by taking the m/z range of 730-1100 Da, and deconvoluted mass range from 36500-37200 Da. An abundance threshold of 10% and tolerance of 30 ppm was set for deconvolution. Unreacted SHP2's total deconvoluted mass was 36602±10 Da; for each deconvolution, the highest deconvoluted mass intensity was utilized as the mass pivot point to determine and identify reacted SHP2 adducts. To calculate the percent SHP2 reacted, the relative abundance intensity of reacted SHP2 was divided by the total relative abundance intensities of unreacted and reacted SHP2.

[1] = pH 7, role: inhibitor, read-out: kinact/KI (converted)

kinact/KI (SHP2 (residues 224-528); [1]) [M⁻¹ s⁻¹]	SMILES	SHP2 inhibition efficacy (in words) (SHP2 (residues 224-528); role: inhibitor)	other results
101	C=C1C(=O)[C@@]2(C(=O)N3CCN(c4ccc(C)cc4)CC3)CC(=O)C[C@@H]1C2 [Compound 38]	–	KI (inactivation) (SHP2 (residues 224-528); role: inhibitor): 176 µM; kinact (SHP2 (residues 224-528); role: inhibitor): 0.0172 s⁻¹
14.3	C=C1C(=O)[C@@]2(C(=O)NCCC)CC(=O)C[C@@H]1C2 [Compound 11]	slightly less potent than compound (10)	kinact/KI (SHP2 (residues 224-528); role: inhibitor): 865.8 M^−1Min^−1
39.6	C=C1C(=O)[C@@]2(C(=O)N3CCN(c4ccccc4)CC3)CC(=O)C[C@@H]1C2 [Compound 30]	small improvement in efficacy	–
19.4	C=C1C(=O)[C@@]2(C(=O)N3CCCCC3)CC(=O)C[C@@H]1C2 [Compound 19]	–	–
15.4	C=C1C(=O)[C@@]2(C(=O)N3CCN(C(C)=O)CC3)CC(=O)C[C@@H]1C2 [Compound 26]	able to inhibit the catalytic activity of SHP2	–
291	C=C1C(=O)[C@@]2(C(=O)N3CCN(c4ccc(C(C)(C)C)cc4)CC3)CC(=O)C[C@@H]1C2 [Compound 40]	–	–
3.52	C=CS(=O)(=O)Oc1ccccc1 [PVSN, phenyl vinyl sulfonate, reference compound]	–	% SHP2 Reacted (overall adduct formation) (SHP2): 21%
367	C=C1C(=O)[C@@]2(C(=O)N3CCN(c4ccc(Br)cc4)CC3)CC(=O)C[C@@H]1C2 [Compound 33]	–	KI (inactivation) (SHP2 (residues 224-528); role: inhibitor): 69.7 µM; kinact (SHP2 (residues 224-528); role: inhibitor): 0.0219 s⁻¹; Found Ligand Adduct (mass shift) (SHP2): 412 Da; % SHP2 Reacted (overall adduct formation) (SHP2): 30%
28.1	C=C1C(=O)[C@@]2(C(=O)N3CCN(C(=O)OC(C)(C)C)CC3)CC(=O)C[C@@H]1C2 [Compound 25]	able to inhibit the catalytic activity of SHP2	–
17.5	C=C1C(=O)[C@@]2(C(=O)N(CC)CC)CC(=O)C[C@@H]1C2 [Compound 12]	more effective than compound (11) and the cyclic matched molecular pair (MMP) compound (17)	–
36.8	C=C1C(=O)[C@@]2(C(=O)N3CCC(F)(F)CC3)CC(=O)C[C@@H]1C2 [Compound 23]	more effective SHP2 inhibitor	kinact/KI (SHP2 (residues 224-528); role: inhibitor): 2,026.8 M^−1Min^−1
12.9	C=C1C(=O)[C@@]2(C(=O)N3CC4(COC4)C3)CC(=O)C[C@@H]1C2 [Compound 22]	–	fold decrease in efficacy (SHP2 (residues 224-528); role: inhibitor): ~2 fold
46.5	C=C1C(=O)[C@@]2(C(=O)N3CCN(c4ccc(OC)cc4)CC3)CC(=O)C[C@@H]1C2 [Compound 39]	–	–
417	C=C1C(=O)[C@@]2(C(=O)N3CCN(c4ccc(C(F)(F)F)cc4)CC3)CC(=O)C[C@@H]1C2 [Compound 42]	–	fold increase in efficacy over compound 11 (SHP2 (residues 224-528); role: inhibitor, kinact/KI relative to 11): 29 fold; fold increase in efficacy compared to PVSN (SHP2 (residues 224-528); role: inhibitor, kinact/KI relative to PVSN): 119 fold; KI (inactivation) (SHP2 (residues 224-528); role: inhibitor): 47.8 µM; kinact (SHP2 (residues 224-528); role: inhibitor): 0.0199 s⁻¹; Found Ligand Adduct (mass shift) (SHP2): 410 Da; % SHP2 Reacted (overall adduct formation) (SHP2): 43%
97.6	C=C1C(=O)[C@@]2(C(=O)N3CCN(c4ccc(F)cc4)CC3)CC(=O)C[C@@H]1C2 [Compound 35]	–	KI (inactivation) (SHP2 (residues 224-528); role: inhibitor): 112 µM; kinact (SHP2 (residues 224-528); role: inhibitor): 0.0109 s⁻¹
22.7	C=C1C(=O)[C@@]2(C(=O)N3CCCCCC3)CC(=O)C[C@@H]1C2 [Compound 20]	–	–
367	C=C1C(=O)[C@@]2(C(=O)N3CCN(c4ccccc4C#N)CC3)CC(=O)C[C@@H]1C2 [Compound 32]	–	fold improvement in efficacy over the unsubstituted piperidine analog (19) (SHP2 (residues 224-528); role: inhibitor, kinact/KI relative to 19): approximately 19 fold; fold increase in efficacy relative to the unsubstituted phenyl ring (SHP2 (residues 224-528); role: inhibitor, kinact/KI relative to unsubstituted phenyl): 9.25 fold
13.4	C=C1C(=O)[C@@]2(C(=O)N3CCCC3)CC(=O)C[C@@H]1C2 [Compound 17]	–	–
220	C=C1C(=O)[C@@]2(C(=O)N3CCN(c4ccc(Cl)cc4)CC3)CC(=O)C[C@@H]1C2 [Compound 36]	–	–
–	C=C1CC2(C(=O)N3CCN(c4ccc(Br)cc4)CC3)CC(=O)CC1C2 (stereo not drawn) [Compound 34]	complete loss of SHP2 inhibition efficacy; also recorded: inactive against SHP2; also recorded: complete loss of activity	–
16	C=C1C(=O)[C@@]2(C(=O)N3CCOCC3)CC(=O)C[C@@H]1C2 [Compound 21]	–	fold decrease in efficacy (SHP2 (residues 224-528); role: inhibitor): ~2 fold
311	C=C1C(=O)[C@@]2(C(=O)N3CCN(c4ccc(-c5ccccc5)cc4)CC3)CC(=O)C[C@@H]1C2 [Compound 41]	–	KI (inactivation) (SHP2 (residues 224-528); role: inhibitor): 10.2 µM; kinact (SHP2 (residues 224-528); role: inhibitor): 0.00317 s⁻¹
